The compounds below were run against T1, human orexin type 2 receptor (Homo sapiens, UniProt O43614) (assay: Measurement of orexin type 2 receptor agonist activity (calcium fluorescence, Fluo-4 AM, FDSS)). Conditions: compound at 3 μM; CHO cells forcibly expressing human OX2 receptor; DMSO = 0%, orexin A (human) 10 nM = 100%.
T1 construct: expressed in transfected cells
T1 sequence (O43614 1-444): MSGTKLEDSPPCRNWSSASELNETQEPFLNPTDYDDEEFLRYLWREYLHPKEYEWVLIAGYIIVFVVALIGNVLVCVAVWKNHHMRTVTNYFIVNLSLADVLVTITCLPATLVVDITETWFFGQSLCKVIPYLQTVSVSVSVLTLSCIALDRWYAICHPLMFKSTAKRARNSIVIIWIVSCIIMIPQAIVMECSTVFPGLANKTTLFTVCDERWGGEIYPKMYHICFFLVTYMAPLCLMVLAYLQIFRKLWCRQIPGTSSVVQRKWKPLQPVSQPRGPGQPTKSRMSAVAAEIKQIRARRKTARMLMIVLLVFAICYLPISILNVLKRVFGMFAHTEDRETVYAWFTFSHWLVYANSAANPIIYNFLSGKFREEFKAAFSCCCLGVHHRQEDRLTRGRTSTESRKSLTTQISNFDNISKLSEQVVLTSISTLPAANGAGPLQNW
Type: cell-based
Source text: To obtain a cell clone stably expressing human orexin type 2 receptor, human orexin type 2 receptor cDNA was inserted into pcDNA3.1(+) plasmid vector (Invitrogen), and a plasmid DNA for expression of human orexin type 2 receptor (pcDNA3.1(+)/hOX2R) was cloned. The plasmid DNA was introduced into CHO-dhfr cell by an electroporation method, and human orexin type 2 receptor expressing clone cells were obtained by limiting dilution method by using G418 drug resistance as a selection marker.
CHO cells forcibly expressing human OX2 receptor were seeded in each well of 384 well black transparent bottom plate (BD Falcon) at 7,500 cells/well, and cultured for one day in a 5% CO2 incubator at 37° C. After removal of the medium in the cell plate, assay buffer A containing a calcium indicator (HBSS (Thermo Fisher Scientific), 20 mM HEPES (Thermo Fisher Scientific), 0.1% BSA (Wako Pure Chemical Industries, Ltd. or Sigma-Aldrich), 2.5 μg/mL Fluo-4 AM (DOJINDO Chemical), 0.08% Pluronic F127 (DOJINDO Chemical), 1.25 mM probenecid (DOJINDO Chemical)) was added at 30 μL/well. The plate was stood for 30 min in a 5% CO2 incubator at 37° C., and further stood at room temperature for 30 min. A test compound prepared by diluting with assay buffer B (HBSS, 20 mM HEPES, 0.1% BSA) was added at […], and the fluorescence value was measured by FDSSpCELL (Hamamatsu Photonics K.K.) every one sec for 1 min, and thereafter every two sec for 1 min 40 sec. The activity (%) of the test compound was calculated assuming that variation in the fluorescence value when DMSO was added instead of the test compound was 0%, and variation in the fluorescence value when orexin A (human) (PEPTIDE INSTITUTE, INC.) was added at the final concentration of 10 nM was 100%. The activity of each compound at the concentration of 3 μM was shown below.

| Structure (SMILES) | OX2R agonist activity (3 μ M, %) |
| --- | --- |
| O=C(NC1CCCN(C(=O)C2CCC2)C1COC1CCN(c2ncccn2)CC1)[C@@H]1CCCO1 (stereo in doubt) [Example 11, (2S)-N-[cis-1-(cyclobutanecarbonyl)-2-({[1-(pyrimidin-2-yl)piperidin-4-yl]oxy}methyl)piperidin-3-yl]oxolane-2-carboxamide] | 94% |
| CN(C)C(=O)C(=O)NC1CCCN(C(=O)C2CCC2)C1COC1CCN(c2ncc(F)cn2)CC1 (stereo not drawn) [Example 4, N^~2^~- [cis-1-(cyclobutanecarbonyl)-2-({[1-(5-fluoropyrimidin-2-yl)piperidin-4-yl]oxy}methyl)piperidin-3-yl]-N^~1^~,N^~1^~-dimethylethanediamide] | 84% |
| O=C(NC1CCCN(C(=O)N2CCC2)C1COC1CCN(c2ncccn2)CC1)[C@@H]1CCCO1 (stereo in doubt) [Example 7, (2S)-N-[cis-1-(azetidine-1-carbonyl)-2-({[1-(pyrimidin-2-yl)piperidin-4-yl]oxy}methyl)piperidin-3-yl]oxolane-2-carboxamide] | 67% |
| O=C(NC1CCCN(C(=O)C2(O)CCC2)C1COC1CCN(c2ncccn2)CC1)[C@@H]1CCCO1 (stereo in doubt) [Example 13, (2S)-N-[cis-1-(1-hydroxycyclobutane-1-carbonyl)-2-({[1-(pyrimidin-2-yl)piperidin-4-yl]oxy}methyl)piperidin-3-yl]oxolane-2-carboxamide] | 81% |
| CC(C)OC(=O)N1CCCC(NC(=O)[C@@H]2CCCO2)C1COC1CCN(c2ncccn2)CC1 (stereo in doubt) [Example 15, propan-2-yl cis-3-{[(2S)-oxolane-2-carbonyl]amino}-2-({[1-(pyrimidin-2-yl)piperidin-4-yl]oxy}methyl)piperidine-1-carboxylate] | 96% |
| CCNC(=O)N1CCCC(NC(=O)C(=O)N(C)C)C1CO[C@H]1CC[C@@H](c2ccccc2F)CC1 (stereo partly drawn) [Example 22, N^~2^~-[cis-1-(ethylcarbamoyl)-2-({[cis-4-(2-fluorophenyl)cyclohexyl]oxy}methyl)piperidin-3-yl]-N^~1^~,N^~1^~- dimethylethanediamide] | 99% |
| CCNC(=O)N1CCCC(NC(=O)C(=O)N(C)C)C1CO[C@H]1CC[C@@H](c2ccc(F)cc2)CC1 (stereo partly drawn) [Example 19, N^~2^~-[cis-1-(ethylcarbamoyl)-2-({[cis-4-(4-fluorophenyl)cyclohexyl]oxy}methyl)piperidin-3-yl]-N^~1^~,N^~1^~- dimethylethanediamide] | 75% |
| O=C(NC1CCCN(C(=O)N2CCC2)C1COC1CCN(c2ncc(F)cn2)CC1)[C@@H]1CCCO1 (stereo in doubt) [Example 8, (2S)-N-[cis-1-(azetidine-1-carbonyl)-2-({[1-(5-fluoropyrimidin-2-yl)piperidin-4-yl]oxy}methyl)piperidin-3-yl]oxolane-2-carboxamide] | 83% |
| CC(C)OC(=O)N1CCCC(NC(=O)[C@@H]2CCCO2)C1COC1CCN(c2ncc(F)cn2)CC1 (stereo in doubt) [Example 16, propan-2-yl cis-2-({[1-(5-fluoropyrimidin-2-yl)piperidin-4-yl]oxy}methyl)-3-{[(2S)-oxolane-2-carbonyl]amino}piperidine-1-carboxylate] | 95% |
| CCNC(=O)N1CCCC(NC(=O)C(=O)N(C)C)C1CO[C@H]1CC[C@@H](c2ccccc2)CC1 (stereo partly drawn) [Example 18, N^~2^~-[cis-1-(ethylcarbamoyl)-2-({[cis-4-phenylcyclohexyl]oxy}methyl)piperidin-3-yl]-N^~1^~,N^~1^~- dimethylethanediamide] | 98% |
| O=C(NC1CCCN(C(=O)C2CCC2)C1COC1CCN(c2ncc(F)cn2)CC1)[C@@H]1CCCO1 (stereo in doubt) [Example 12, (2S)-N-[cis-1-(cyclobutanecarbonyl)-2-({[1-(5-fluoropyrimidin-2-yl)piperidin-4-yl]oxy}methyl)piperidin-3-yl]oxolane-2-carboxamide] | 99% |
| CCNC(=O)N1CCCC(NC(=O)C(=O)N(C)C)C1CO[C@H]1CC[C@@H](c2cccc(F)c2)CC1 (stereo partly drawn) [Example 21, N^~2^~-[cis-1-(ethylcarbamoyl)-2-({[cis-4-(3-fluorophenyl)cyclohexyl]oxy}methyl)piperidin-3-yl]-N^~1^~,N^~1^~- dimethylethanediamide] | 102% |
| O=C(NC1CCCN(C(=O)C2(O)CCC2)C1COC1CCN(c2ncc(F)cn2)CC1)[C@@H]1CCCO1 (stereo in doubt) [Example 14, (2S)-N-[cis-2-({[1-(5-fluoropyrimidin-2-yl)piperidin-4-yl]oxy}methyl)-1-(1-hydroxycyclobutane-1-carbonyl)piperidin-3-yl]oxolane-2-carboxamide] | 92% |

— patent US12077522B2, “Heterocyclic compound and application thereof” (Takeda Pharmaceutical Company Limited, priority 2018, dated 2024)
